Data as given in patent US12209087B2, “AKT1 modulators” (Alterome Therapeutics, Inc., priority 2022, dated 2025).

The compounds below were run against T1, full length AKT E17K (Homo sapiens, UniProt P31749, E17K) (assay: NanoBRET Target Engagement (TE) Assay). Settings: competitive displacement of tracer in cells, read-out: AKT1 E17K IC50.
T1 construct: host or cells: HEK-293 (ATCC CRL-1573)
Type: cell-based
How it was run: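 Compound and tracer incubated 2 h before luminescence at donor 450 nm and acceptor 600 nm, with extracellular signal inhibited. EC50 by sigmoidal variable-slope regression.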

T1 sequence (P31749 whole entry E17K): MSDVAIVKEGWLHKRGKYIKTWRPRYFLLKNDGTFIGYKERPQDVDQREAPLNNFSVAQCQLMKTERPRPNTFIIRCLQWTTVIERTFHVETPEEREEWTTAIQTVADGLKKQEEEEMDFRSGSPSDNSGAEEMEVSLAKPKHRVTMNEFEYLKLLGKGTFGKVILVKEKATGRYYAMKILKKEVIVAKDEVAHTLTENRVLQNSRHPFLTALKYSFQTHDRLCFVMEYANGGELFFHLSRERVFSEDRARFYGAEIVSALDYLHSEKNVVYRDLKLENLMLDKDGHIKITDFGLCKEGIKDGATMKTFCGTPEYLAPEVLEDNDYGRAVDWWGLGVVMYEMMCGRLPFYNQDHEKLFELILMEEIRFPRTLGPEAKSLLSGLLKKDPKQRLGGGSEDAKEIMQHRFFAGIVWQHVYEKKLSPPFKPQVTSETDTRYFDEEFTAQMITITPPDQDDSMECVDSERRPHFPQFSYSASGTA

Compound | IC50 [nM]
N#Cc1nccc(NC2CCN(Cc3ccc(-n4c(-c5cccnc5N)nc5ccc(-c6ccc(OCF)cn6)nc54)cc3)CC2)n1 [Example 580, 4-((1-(4-(2-(2-Aminopyridin-3-yl)-5-(5-(fluoromethoxy)pyridin-2-yl)-3H-imidazo[4,5-b]pyridin-3-yl)benzyl)piperidin-4-yl)amino)pyrimidine-2-carbonitrile] | < 15
N#Cc1nccc(NC2CCN(Cc3ccc(-n4c(-c5cccnc5N)nc5ccc(N6CCNC(=O)CC6)nc54)cc3)CC2)n1 [Example 323, 4-((1-(4-(2-(2-Aminopyridin-3-yl)-5-(5-oxo-1,4-diazepan-1-yl)-3H-imidazo[4,5-b]pyridin-3-yl)benzyl)piperidin-4-yl)amino)pyrimidine-2-carbonitrile] | 600 to 10000
CC(C)n1cc(-c2ccc3nc(-c4cccnc4N)n(-c4ccc(CN5CCC(Nc6ccnc(C#N)n6)CC5)cc4)c3n2)cn1 [Example 479, 4-((1-(4-(2-(2-Aminopyridin-3-yl)-5-(1-isopropyl-1H-pyrazol-4-yl)-3H-imidazo[4,5-b]pyridin-3-yl)benzyl)piperidin-4-yl)amino)pyrimidine-2-carbonitrile] | < 15
N#Cc1cc(N2C[C@@H]3C[C@H]2CN3Cc2ccc(-n3c(-c4cccnc4N)nc4ccc(-c5ccccc5)nc43)cc2)ncn1 [Example 376, 6-((1S,4S)-5-(4-(2-(2-Aminopyridin-3-yl)-5-phenyl-3H-imidazo[4,5-b]pyridin-3-yl)benzyl)-2,5-diazabicyclo[2.2.1]heptan-2-yl)pyrimidine-4-carbonitrile] | 60 to 600
N#Cc1nccc(NC2CCN(Cc3ccc(-n4c(-c5cccnc5N)nc5ccc(-c6ccc[nH]c6=O)nc54)cc3)CC2)n1 [Example 538, 4-((1-(4-(2-(2-Aminopyridin-3-yl)-5-(2-hydroxypyridin-3-yl)-3H-imidazo[4,5-b]pyridin-3-yl)benzyl)piperidin-4-yl)amino)pyrimidine-2-carbonitrile] | 15 to 60
N#Cc1nccc(NC2CCN(Cc3ccc(-n4c(-c5cccnc5N)nc5ccc(-c6ncn(C(F)F)n6)nc54)cc3)CC2)n1 [Example 572, 4-((1-(4-(2-(2-Aminopyridin-3-yl)-5-(1-(difluoromethyl)-1H-1,2,4-triazol-3-yl)-3H-imidazo[4,5-b]pyridin-3-yl)benzyl)piperidin-4-yl)amino)pyrimidine-2-carbonitrile] | < 15
[2H]C([2H])([2H])Oc1ccc(-c2ccc3nc(-c4nccnc4N)n(-c4ccc(CN5CCC(Nc6ccnc(C#N)n6)CC5)cc4)c3n2)cn1 [Example 637, 4-((1-(4-(2-(3-aminopyrazin-2-yl)-5-(6-(methoxy-d3)pyridin-3-yl)-3H-imidazo[4,5-b]pyridin-3-yl)benzyl)piperidin-4-yl)amino)pyrimidine-2-carbonitrile] | < 15
CC(=O)N(C)c1cccc(-c2ccc3nc(-c4cccnc4N)n(-c4ccc(CN5CCC(Nc6ccnc(C#N)n6)CC5)cc4)c3n2)c1 [Example 514, N-(3-(2-(2-Aminopyridin-3-yl)-3-(4-((4-((2-cyanopyrimidin-4-yl)amino)piperidin-1-yl)methyl)phenyl)-3H-imidazo[4,5-b]pyridin-5-yl)phenyl)-N-methylacetamide] | < 15
N#Cc1nccc(NC2CCN(Cc3ccc(-n4c(-c5cccnc5N)nc5cc(C#N)c(O)nc54)cc3)CC2)n1 [Example 599, 2-(2-Aminopyridin-3-yl)-3-(4-((4-((2-cyanopyrimidin-4-yl)amino)piperidin-1-yl)methyl)phenyl)-5-hydroxy-3H-imidazo[4,5-b]pyridine-6-carbonitrile] | 600 to 10000
COc1ccnc(-c2ccc3nc(-c4cccnc4N)n(-c4ccc(CN5CCC(Nc6ccnc(C#N)n6)CC5)cc4)c3n2)c1 [Example 437, 4-((1-(4-(2-(2-Aminopyridin-3-yl)-5-(4-methoxypyridin-2-yl)-3H-imidazo[4,5-b]pyridin-3-yl)benzyl)piperidin-4-yl)amino)pyrimidine-2-carbonitrile] | < 15
N#Cc1nccc(NC2CCN(Cc3ccc(-n4c(-c5cccnc5N)nc5ccc(-c6ccncc6F)nc54)cc3)CC2)n1 [Example 551, 4-((1-(4-(2-(2-aminopyridin-3-yl)-5-(3-fluoropyridin-4-yl)-3H-imidazo[4,5-b]pyridin-3-yl)benzyl)piperidin-4-yl)amino)pyrimidine-2-carbonitrile] | < 15

Next, values leading:

IC50 [nM] | Compound
15 to 60 | N#Cc1nccc(N2CCC3(CCN(Cc4ccc(-n5c(-c6cccnc6N)nc6ccc(-c7ccccc7)nc65)cc4)CC3)CC2)n1 [Example 364, 4-(9-(4-(2-(2-Aminopyridin-3-yl)-5-phenyl-3H-imidazo[4,5-b]pyridin-3-yl)benzyl)-3,9-diazaspiro[5.5]undecan-3-yl)pyrimidine-2-carbonitrile]
< 15 | N#Cc1nccc(N2CCN(Cc3ccc(-n4c(-c5cccnc5N)nc5ccc(-c6cnccc6C#N)nc54)cc3)CC2)n1 [Example 383, 4-(4-(4-(2-(2-Aminopyridin-3-yl)-5-(4-cyanopyridin-3-yl)-3H-imidazo[4,5-b]pyridin-3-yl)benzyl)piperazin-1-yl)pyrimidine-2-carbonitrile]
15 to 60 | N#Cc1ccnc(N2CCN(Cc3ccc(-n4c(-c5cccnc5N)nc5ccc(-c6cccc(=O)[nH]6)nc54)cc3)CC2)n1 [Example 333, 2-(4-(4-(2-(2-Aminopyridin-3-yl)-5-(6-oxo-1,6-dihydropyridin-2-yl)-3H-imidazo[4,5-b]pyridin-3-yl)benzyl)piperazin-1-yl)pyrimidine-4-carbonitrile]
15 to 60 | N#Cc1nccc(NC2CCN(Cc3ccc(-n4c(-c5cccnc5N)nc5ccc(-c6ccc(F)cc6C#N)nc54)cc3)CC2)n1 [Example 525, 4-((1-(4-(2-(2-Aminopyridin-3-yl)-5-(2-cyano-4-fluorophenyl)-3H-imidazo[4,5-b]pyridin-3-yl)benzyl)piperidin-4-yl)amino)pyrimidine-2-carbonitrile]
60 to 600 | N#Cc1ccc(-c2ccc3nc(-c4cccnc4N)n(-c4ccc(CN5CCN(c6nccc(C#N)n6)CC5)cc4)c3n2)cc1 [Example 319, 2-(4-(4-(2-(2-Aminopyridin-3-yl)-5-(4-cyanophenyl)-3H-imidazo[4,5-b]pyridin-3-yl)benzyl)piperazin-1-yl)pyrimidine-4-carbonitrile]
15 to 60 | Cn1ccc(-c2ccc3nc(-c4cccnc4N)n(-c4ccc(CN5CCN(c6ccnc(C#N)n6)CC5)cc4)c3n2)cc1=O [Example 349, 4-(4-(4-(2-(2-Aminopyridin-3-yl)-5-(1-methyl-2-oxo-1,2-dihydropyridin-4-yl)-3H-imidazo[4,5-b]pyridin-3-yl)benzyl)piperazin-1-yl)pyrimidine-2-carbonitrile]
< 15 | N#Cc1nccc(NC2CCN(Cc3ccc(-n4c(-c5cccnc5N)nc5ccc(-c6ccc(OC(F)F)nc6)nc54)cc3)CC2)n1 [Example 542, 4-((1-(4-(2-(2-Aminopyridin-3-yl)-5-(6-(difluoromethoxy)pyridin-3-yl)-3H-imidazo[4,5-b]pyridin-3-yl)benzyl)piperidin-4-yl)amino)pyrimidine-2-carbonitrile]

Same assay, conditions: competitive tracer displacement in living cells, read-out: AKT1 E17K IC50

Compound | IC50 [nM]
N#Cc1nc2c(C(=O)N3CCN(Cc4ccc(-n5c(-c6cccnc6N)nc6ccc(-c7ccccc7)nc65)cc4)CC3)cc(F)cc2s1 [Example 181, 4-(4-(4-(2-(2-Aminopyridin-3-yl)-5-phenyl-3H-imidazo[4,5-b]pyridin-3-yl)benzyl)piperazine-1-carbonyl)-6-fluorobenzo[d]thiazole-2-carbonitrile] | 15 to 60
N#Cc1cccc(NC2CCN(Cc3ccc(-n4c(-c5cccnc5N)nc5cccnc54)cc3)CC2)n1 [Example 63, 6-((1-(4-(2-(2-Aminopyridin-3-yl)-3H-imidazo[4,5-b]pyridin-3-yl)benzyl)piperidin-4-yl)amino)picolinonitrile] | 600 to 10000
N#Cc1cccnc1C(=O)NCc1ccc(-n2c(-c3cccnc3N)nc3cccnc32)cc1 [Example 101, N-(4-(2-(2-Aminopyridin-3-yl)-3H-imidazo[4,5-b]pyridin-3-yl)benzyl)-3-cyanopicolinamide] | 600 to 10000
N#Cc1cccc(C(=O)NCc2ccc(-n3c(-c4cccnc4N)nc4cc(-c5ccccc5)cnc43)cc2)n1 [Example 168, N-(4-(2-(2-Aminopyridin-3-yl)-6-phenyl-3H-imidazo[4,5-b]pyridin-3-yl)benzyl)-6-cyanopicolinamide] | 600 to 10000

Now from value to compound:

IC50 [nM] | Compound
60 to 600 | N#Cc1nccc(N2CCN(Cc3ccc(-n4c(-c5cccnc5N)nc5ccc(N6CCCNC(=O)C6)nc54)cc3)CC2)n1 [Example 317, 4-(4-(4-(2-(2-Aminopyridin-3-yl)-5-(3-oxo-1,4-diazepan-1-yl)-3H-imidazo[4,5-b]pyridin-3-yl)benzyl)piperazin-1-yl)pyrimidine-2-carbonitrile]
15 to 60 | N#Cc1ncnc(N2CCCC3(CCN(Cc4ccc(-n5c(-c6cccnc6N)nc6ccc(-c7ccccc7)nc65)cc4)C3)C2)n1 (stereo not drawn) [Example 253, 4-(2-(4-(2-(2-Aminopyridin-3-yl)-5-phenyl-3H-imidazo[4,5-b]pyridin-3-yl)benzyl)-2,7-diazaspiro[4.5]decan-7-yl)-1,3,5-triazine-2-carbonitrile]
15 to 60 | CC(=O)Nc1cccc(-c2ccc3nc(-c4cccnc4N)n(-c4ccc(CN5CCN(c6cnc(C#N)nc6)CC5)cc4)c3n2)c1 [Example 42, N-(3-(2-(2-Aminopyridin-3-yl)-3-(4-((4-(2-cyanopyrimidin-5-yl)piperazin-1-yl)methyl)phenyl)-3H-imidazo[4,5-b]pyridin-5-yl)phenyl)acetamide]
60 to 600 | N#Cc1ccnc(C(=O)N2CCN(Cc3ccc(-n4c(-c5cccnc5N)nc5ccc(-c6ccccc6)nc54)cc3)CC2)c1 [Example 140, 2-(4-(4-(2-(2-Aminopyridin-3-yl)-5-phenyl-3H-imidazo[4,5-b]pyridin-3-yl)benzyl)piperazine-1-carbonyl)isonicotinonitrile]
15 to 60 | CN(c1ccnc(C#N)n1)C1CCN(Cc2ccc(-n3c(-c4cccnc4N)nc4ccc(-c5ccccc5)nc43)cc2)CC1 [Example 156, 4-((1-(4-(2-(2-Aminopyridin-3-yl)-5-phenyl-3H-imidazo[4,5-b]pyridin-3-yl)benzyl)piperidin-4-yl)(methyl)amino)pyrimidine-2-carbonitrile]
